Assays:
[1] = tested on: LX-1 (solid human lung Tumor); assay: LX-1 tumor xenograft in athymic nude mice; format: in vivo; details: when control median tumor volume reached 1000 mm^3
Experimental: All PEG conjugated compounds were dissolved (˜15 mg/mL) in sterile saline (0.9%) for injection prior to in vivo drug treatments and were given as their ara-C equivalents (absolute amount of ara-C given).
Athymic nude mice were implanted subcutaneous with a 4-5 mm^3 tissue fragment of LX-1 (solid human lung Tumor) collected from donor mice. The tumor trocar site was observed twice weekly and measured once palpable. The tumor volume for each mouse was determined by measuring two dimensions with calipers and calculated using the formula: tumor volume=(length×width^2)/2. […] The mice were sorted to evenly distribute tumor size, grouped into 4 to 6 mice/group, and ear punched for permanent identification. Drugs were administered intravenously q3d×4 (Day 1, 4, 7 and 10) via the tail vein at an approximate rate of 0.5 mL per minute.

[2] = tested on: P388/O (murine lymphoid neoplasm) cell line; assay: In vitro bioassay, cell growth by Alamar Blue; format: cell-based; details: P388/O cells, three days, 37° C., in duplicate, SD ±10%
Experimental: A series of in vitro assays were conducted to determine the IC50 for unmodified Ara-C and compound 10 using the P388/O (murine lymphoid neoplasm, Southern Research Institute) cell line. The P388/0 cells were grown in RPMI 1640 medium (Whittaker Bioproducts, Walkersville, Md.)+10% FBS (Hyclone Inc., Logan Utah). Bioassays were performed in their respective media containing antibiotics and fungizone.
Ara-C was dissolved in DMSO and diluted to the appropriate concentration in culture media. The individual PEG-Ara-C compound was dissolved in water and diluted to the appropriate concentrations in culture media.
The assays were performed in duplicate in 96-well microtiter cell culture plates. Two fold serial dilution of the compounds were done in the microtiter plates. Cells were detached by incubating with 0.1% Trypsin/Versene at 37°. Trypsin was inactivated by adding the appropriate media for each cell line containing 10% FBS. To each well of the microtiter plates, 10,000 cells were added. After three days, cell growth was measured by addition of a metabolic indicator dye, Alamar Blue, according to the manufacturer's protocol. The IC50 value for the test compound and reference compound are provided above in the Table.

[3] = Half-life in rat plasma, measured by disappearance of PEG derivatives; format: in vitro ADME; details: 37° C., in duplicate, SD ±10%

## Nc1ccn([C@@H]2O[C@H](CO)[C@@H](O)[C@@H]2O)c(=O)n1 [Ara-C, cytosine arabinoside, reference compound]
[1]; 100 mg/kg i.v. q3d×4, LX-1 in nude mice
  % Tumor Growth Inhibition: 26.2%
[2]
  IC50: 10 nM

## PEG ara-C 4-aminobenzenamide [Compound 6b]
[3]
  t1/2 (h) Rat Plasma: 75 h
[1]; 20 mg/kg (ara-C equivalents) i.v. q3d×4, LX-1 in nude mice
  % Tumor Growth Inhibition: 12.3%
[2]
  IC50: 1190 nM

## PEG ara-C 4-aminomethylbenzenamide [Compound 6a]
[3]
  t1/2 (h) Rat Plasma: 65 h
[2]
  IC50: 122 nM

Reference: patent publication US6936597B2, “Prodrugs of anticancer agents employing substituted aromatic acids” (priority 2001, dated 2005)
